Laboratory results as given in patent US9029356B2, “Substituted indazole derivatives active as kinase inhibitors” (Nerviano Medical Services S.R.L., priority 2007, dated 2015).

Legend:
ALK = ALK (Homo sapiens (Human), UniProt Q9UM73); assay: Biochemical assay for inhibitors of ALK kinase activity; settings: 20 nM enzyme, 8 microM ATP, 2 microM MBP
Excerpt: Preparation of ALK Cytoplasmic Domain for Use in Biochemical Assay
For cloning purposes, the oligonucleotides included attB sites in order to obtain an attB-flanked PCR product suitable for cloning using the Gateway technology (Invitrogen). Furthermore, for purification purposes, forward primer included a PreScission cleavage site (Amersham Biosciences). The resulting PCR product was cloned in the baculovirus expression vector pVL1393 (Invitrogen) Gateway-modified. For expression and purification purpose, a GST tag was added N-terminal to the ALK cytoplasmic domain. Cloning was performed according to the protocols described in the Gateway manual (Invitrogen).
Affinity purified GST-ALK was loaded on a Heparin Sepharose™ FF (Amersham Biosciences) column and eluted with 50 mM NaCl, 25 mM TRIS pH 7.5, 2 mM DTT, 20% glycerol.
Biochemical Assay for Inhibitors of ALK Kinase Activity

IGF-1R = IGF-1R (Homo sapiens (Human), UniProt P08069); assay: Biochemical assay for inhibitors of IGF-1R kinase activity; settings: 6 nM enzyme, 6 microM ATP, 10 microM peptide substrate
IGF-1R, sequence (P08069 960-1367): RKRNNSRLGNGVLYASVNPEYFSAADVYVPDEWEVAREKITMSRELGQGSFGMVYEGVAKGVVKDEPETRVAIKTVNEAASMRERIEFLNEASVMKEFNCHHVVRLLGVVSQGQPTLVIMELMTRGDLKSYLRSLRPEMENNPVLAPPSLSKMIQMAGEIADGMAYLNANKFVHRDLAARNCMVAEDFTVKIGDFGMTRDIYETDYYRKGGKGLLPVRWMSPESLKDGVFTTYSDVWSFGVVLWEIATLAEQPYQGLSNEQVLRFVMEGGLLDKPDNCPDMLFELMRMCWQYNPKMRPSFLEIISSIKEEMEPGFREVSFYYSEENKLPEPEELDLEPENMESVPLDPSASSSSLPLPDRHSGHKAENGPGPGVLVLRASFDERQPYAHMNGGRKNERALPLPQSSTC
Experimental: Biochemical Assay for Inhibitors of IGF-1 R Kinase Activity The inhibitory activity of putative kinase inhibitors and the potency of selected compounds were determined using a trans-phosphorylation assay. A specific substrate was incubated with the kinase in appropriate buffer conditions in the presence of ATP traced with ^33P-γ-ATP (gamma phosphate-labeled, RedivueTM Code Number AH9968, 1000-3000 Ci/mmole, Amersham Biosciences Piscataway, N.J., USA), optimal cofactors and test compound. At the end of the phosphorylation reaction, more than 98% cold and radioactive ATP were captured by an excess of Dowex ion exchange resin. The resin was allowed to settle to the bottom of reaction wells by gravity. Supernatant, containing substrate peptide, was subsequently withdrawn and transferred into a counting plate, and radioactivity (corresponding to phosphate incorporated into peptide) was evaluated by β-counting. […] Prior to starting the kinase inhibition assay, IGF-1R was pre-phosphorylated in order to linearize reaction kinetics. […] The peptide was obtained in batches of >95% peptide purity from American Peptide Company, Inc. (Sunnyvale, Calif., USA). […] Compounds showing desired inhibition were further analysed in order to study the potency of the inhibitor through IC50 calculation. […]

ALK, sequence (Q9UM73 1060-1620): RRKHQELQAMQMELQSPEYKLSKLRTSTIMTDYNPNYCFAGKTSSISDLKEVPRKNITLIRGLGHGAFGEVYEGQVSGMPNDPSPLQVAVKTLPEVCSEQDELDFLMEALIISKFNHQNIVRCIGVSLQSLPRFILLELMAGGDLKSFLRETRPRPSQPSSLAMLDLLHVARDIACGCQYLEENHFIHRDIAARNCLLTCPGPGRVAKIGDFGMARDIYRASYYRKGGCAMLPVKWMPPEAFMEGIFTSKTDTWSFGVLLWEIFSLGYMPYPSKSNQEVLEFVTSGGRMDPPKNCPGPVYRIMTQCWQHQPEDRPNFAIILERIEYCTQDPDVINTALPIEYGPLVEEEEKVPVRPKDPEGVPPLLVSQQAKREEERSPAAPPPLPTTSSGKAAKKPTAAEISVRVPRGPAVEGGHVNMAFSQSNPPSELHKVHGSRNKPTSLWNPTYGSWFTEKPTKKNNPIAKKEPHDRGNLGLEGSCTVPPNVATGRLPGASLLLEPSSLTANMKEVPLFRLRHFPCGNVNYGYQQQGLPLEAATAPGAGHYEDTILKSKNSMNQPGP

Row | Structure (SMILES) | IC50 (ALK) | IC50 (IGF-1R)
1 | CN1CCN(c2ccc(C(=O)Nc3n[nH]c4ccc(Cc5cc(F)cc(F)c5)cc34)c(NC3CCCCC3)c2)CC1 [Cpd 18, 2-Cyclohexylamino-N-[5-(3,5-difluoro-benzyl)-1H-indazol-3-yl]-4-(4-methyl-piperazin-1-yl)-benzamide] | 1.77 µM | 6.07 µM
2 | COCCNc1cc(N2CCN(C)CC2)ccc1C(=O)Nc1n[nH]c2ccc(Cc3cc(F)cc(F)c3)cc12 [Cpd 26, N-[5-(3,5-Difluoro-benzyl)-1H-indazol-3-yl]-2-(2-methoxy-ethylamino)-4-(4-methyl-piperazin-1-yl)-benzamide] | 0.411 µM | 
3 | CN1CCN(c2ccc(C(=O)Nc3n[nH]c4ccc(Cc5cc(F)cc(F)c5)cc34)cc2)CC1 [Cpd 4, N-[5-(3,5-Difluoro-benzyl)-1H-indazol-3-yl]-4-(4-methyl-piperazin-1-yl)-benzamide] | 0.207 µM | 
